“And” between values parts separate entries of the source, which are not always exact repeats. Equal entries are not always repeated. Where two headings read alike, the source gives them in different places.
Experiments:
[1] = tested on: BaF3; assay: Anti-proliferation assay, parental BaF3 cells; format: cell-based; conditions: Mus musculus, 72 hours, CellTiter-Glo
Description: The KIT mutant isogenic BaF3 cells lines and Colo320DM cells were cultured in RPMI 1640 media (Corning, USA) with 10% fetal bovine serum (FBS) and supplemented with 2% L-glutamine 1% penicillin/streptomycin, the BaF3 cell line was cultured in RPMI 1640 media (Corning, USA) with 1% IL-3, 10% fetal bovine serum (FBS) and supplemented with 2% L-glutamine 1% penicillin/streptomycin. All cell lines were maintained in culture media at 37°C with 5% CO2.

[2] = tested on: BaF3-tel-KIT-A829P; assay: Anti-proliferation assay, transformed BaF3 cells; format: cell-based; conditions: Mus musculus, 72 hours, CellTiter-Glo
Description: (§1) Retroviral constructs for BaF3-KIT mutants were made based on the pMSCVpuro (Clontech) backbone. For TEL-KIT vector, the first 1 kb of human TEL gene with an artificial myristoylation sequence ([…]) was cloned into the pMSCVpuro retroviral vector, followed by a 3xFLAG tag sequence. Then, the kinase domain coding sequence of KIT was inserted in-frame between TEL and 3xFLAG sequences. For full-length expression vectors, the coding sequences of KIT variants were directly cloned in pMSCVpuro vector with a 3xFLAG tag at the C-terminal end. All mutagenesis was performed using the QuikChange Site-Directed Mutagenesis Kit (Stratagene) following the manufacturer’s instructions. Retrovirus was packaged in HEK293T cells by transfecting KIT-containing MSCV vectors together with two helper plasmids. Virus supernatants were harvested 48 h after transfection and filtered before infection. Then BaF3 cells were infected with harvested virus supernatants using spinoculation protocol, and stable cell lines were obtained by puromycin selection for 48 h. The IL-3 concentrations in the culture medium were gradually withdrawn until cells were able to grow in the absence of IL-3.
(§2) Cells were grown in 96-well culture plates (2500/well). The compounds of various concentrations were added into the plates. Cell proliferation was determined after treatment with compounds for 72 hours. Cell viability was measured using the CellTiter–Glo assay (Promega, USA), according to the manufacturer’s instructions, and luminescence was measured in a multi-label reader (Envision, PerkinElmer, USA). Data were normalized to control groups (DMSO) and represented by the mean of three independent measurements with standard error <20%. GI50 values were calculated using Prism 5.0 (GraphPad Software, San Diego, CA).

[3] = tested on: BaF3-tel-KIT-D816V; assay: Anti-proliferation assay, transformed BaF3 cells; format: cell-based; conditions: Mus musculus, 72 hours, CellTiter-Glo
Description: as §1, §2

[4] = tested on: BaF3-tel-KIT-L576P; assay: Anti-proliferation assay, transformed BaF3 cells; format: cell-based; conditions: Mus musculus, 72 hours, CellTiter-Glo
Description: as §1, §2

[5] = tested on: BaF3-tel-KIT-N822K; assay: Anti-proliferation assay, transformed BaF3 cells; format: cell-based; conditions: Mus musculus, 72 hours, CellTiter-Glo
Description: as §1, §2

[6] = tested on: BaF3-tel-KIT-T670I-V559D; assay: Anti-proliferation assay, transformed BaF3 cells; format: cell-based; conditions: Mus musculus, 72 hours, CellTiter-Glo
Description: as §1, §2

[7] = tested on: BaF3-tel-KIT-T670I; assay: Anti-proliferation assay, transformed BaF3 cells; format: cell-based; conditions: Mus musculus, 72 hours, CellTiter-Glo
Description: as §1, §2

[8] = tested on: BaF3-tel-KIT-V559D-V654A; assay: Anti-proliferation assay, transformed BaF3 cells; format: cell-based; conditions: Mus musculus, 72 hours, CellTiter-Glo
Description: as §1, §2

[9] = tested on: BaF3-tel-KIT-V559D; assay: Anti-proliferation assay, transformed BaF3 cells; format: cell-based; conditions: Mus musculus, 72 hours, CellTiter-Glo
Description: as §1, §2

[10] = tested on: BaF3-tel-KIT-V654A; assay: Anti-proliferation assay, transformed BaF3 cells; format: cell-based; conditions: Mus musculus, 72 hours, CellTiter-Glo
Description: as §1, §2

[11] = tested on: BaF3-tel-KIT; assay: Anti-proliferation assay, transformed BaF3 cells; format: cell-based; conditions: Mus musculus, 72 hours, CellTiter-Glo
Description: as §1, §2

[12] = target: T1, CAMK1B (Homo sapiens, UniProt Q6P2M8); assay: KINOMEScan; format: binding; parameters: dose or concentration left out as unconfirmed
T1 construct: purchased DiscoverX KINOMEscan

[13] = target: T2, CHEK1 (Homo sapiens, UniProt O14757); assay: KINOMEScan; format: binding; parameters: dose or concentration left out as unconfirmed
T2 construct: purchased DiscoverX KINOMEscan

[14] = target: T3, CSNK1G1 (Homo sapiens, UniProt Q9HCP0); assay: KINOMEScan; format: binding; parameters: dose or concentration left out as unconfirmed
T3 construct: purchased DiscoverX KINOMEscan

[15] = target: T4, CSNK1G2 (Homo sapiens, UniProt P78368); assay: KINOMEScan; format: binding; parameters: dose or concentration left out as unconfirmed
T4 construct: purchased DiscoverX KINOMEscan

[16] = target: T5, EGFR(L858R) (Homo sapiens, UniProt P00533, L858R); assay: KINOMEScan; format: binding; parameters: dose or concentration left out as unconfirmed
T5 construct: purchased DiscoverX KINOMEscan

[17] = target: T6, EGFR(T790M) (Homo sapiens, UniProt P00533, T790M); assay: KINOMEScan; format: binding
T6 construct: purchased DiscoverX KINOMEscan

[18] = target: T7, EPHB2 (Homo sapiens, UniProt P29323); assay: KINOMEScan; format: binding; parameters: dose or concentration left out as unconfirmed
T7 construct: purchased DiscoverX KINOMEscan

[19] = tested on: FLT3(ITD,D835V); assay: KINOMEScan; format: binding; parameters: dose or concentration left out as unconfirmed
[20] = tested on: FLT3(ITD,F691L); assay: KINOMEScan; format: binding; parameters: dose or concentration left out as unconfirmed
[21] = target: T8, JAK1(JH2domain-pseudokinase) (Homo sapiens, UniProt P23458); assay: KINOMEScan; format: binding; parameters: dose or concentration left out as unconfirmed
T8 construct: JAK1(JH2domain-pseudokinase); purchased DiscoverX KINOMEscan

[22] = target: T9, JNK1 (Homo sapiens, UniProt P45983); assay: KINOMEScan; format: binding; parameters: dose or concentration left out as unconfirmed
T9 construct: purchased DiscoverX KINOMEscan

[23] = target: T10, MAP4K3 (Homo sapiens, UniProt Q8IVH8); assay: KINOMEScan; format: binding; parameters: dose or concentration left out as unconfirmed
T10 construct: purchased DiscoverX KINOMEscan

[24] = target: T11, PIP5K1C (Homo sapiens, UniProt O60331); assay: KINOMEScan; format: binding; parameters: dose or concentration left out as unconfirmed
T11 construct: purchased DiscoverX KINOMEscan

[25] = target: T12, RSK4(Kin.Dom.1-N-terminal) (Homo sapiens, UniProt Q9UK32); assay: KINOMEScan; format: binding
T12 construct: RSK4(Kin.Dom.1-N-terminal); purchased DiscoverX KINOMEscan

[26] = target: KIT L576p (Homo sapiens, UniProt P10721, L576P); assay: KIT auto-phosphorylation in transformed BaF3 cells; conditions: 2h
[27] = target: KIT T670I/V559D (Homo sapiens, UniProt P10721, T670I/V559D); assay: KIT auto-phosphorylation in transformed BaF3 cells
[28] = target: KIT V559D (Homo sapiens, UniProt P10721, V559D); assay: ADP-Glo biochemical assay; parameters: Kit V559D encoding residues 545-976 with His tag; His tag; made in house; host or cells: SF9 insect cells (baculovirus)
KIT V559D, sequence (P10721 545-976 V559D): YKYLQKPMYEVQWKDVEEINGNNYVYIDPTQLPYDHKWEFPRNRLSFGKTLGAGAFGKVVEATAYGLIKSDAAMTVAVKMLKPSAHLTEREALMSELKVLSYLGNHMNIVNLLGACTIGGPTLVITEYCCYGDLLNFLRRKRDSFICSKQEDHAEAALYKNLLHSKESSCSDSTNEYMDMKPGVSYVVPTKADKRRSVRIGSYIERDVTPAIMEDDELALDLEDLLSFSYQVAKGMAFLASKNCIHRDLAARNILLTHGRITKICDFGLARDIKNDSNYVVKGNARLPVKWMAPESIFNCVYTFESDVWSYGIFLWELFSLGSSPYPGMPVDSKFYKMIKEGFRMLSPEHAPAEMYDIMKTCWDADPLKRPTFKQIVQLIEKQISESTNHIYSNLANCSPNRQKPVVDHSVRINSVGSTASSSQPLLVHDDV

KIT L576p, sequence (P10721 26-976 L576P): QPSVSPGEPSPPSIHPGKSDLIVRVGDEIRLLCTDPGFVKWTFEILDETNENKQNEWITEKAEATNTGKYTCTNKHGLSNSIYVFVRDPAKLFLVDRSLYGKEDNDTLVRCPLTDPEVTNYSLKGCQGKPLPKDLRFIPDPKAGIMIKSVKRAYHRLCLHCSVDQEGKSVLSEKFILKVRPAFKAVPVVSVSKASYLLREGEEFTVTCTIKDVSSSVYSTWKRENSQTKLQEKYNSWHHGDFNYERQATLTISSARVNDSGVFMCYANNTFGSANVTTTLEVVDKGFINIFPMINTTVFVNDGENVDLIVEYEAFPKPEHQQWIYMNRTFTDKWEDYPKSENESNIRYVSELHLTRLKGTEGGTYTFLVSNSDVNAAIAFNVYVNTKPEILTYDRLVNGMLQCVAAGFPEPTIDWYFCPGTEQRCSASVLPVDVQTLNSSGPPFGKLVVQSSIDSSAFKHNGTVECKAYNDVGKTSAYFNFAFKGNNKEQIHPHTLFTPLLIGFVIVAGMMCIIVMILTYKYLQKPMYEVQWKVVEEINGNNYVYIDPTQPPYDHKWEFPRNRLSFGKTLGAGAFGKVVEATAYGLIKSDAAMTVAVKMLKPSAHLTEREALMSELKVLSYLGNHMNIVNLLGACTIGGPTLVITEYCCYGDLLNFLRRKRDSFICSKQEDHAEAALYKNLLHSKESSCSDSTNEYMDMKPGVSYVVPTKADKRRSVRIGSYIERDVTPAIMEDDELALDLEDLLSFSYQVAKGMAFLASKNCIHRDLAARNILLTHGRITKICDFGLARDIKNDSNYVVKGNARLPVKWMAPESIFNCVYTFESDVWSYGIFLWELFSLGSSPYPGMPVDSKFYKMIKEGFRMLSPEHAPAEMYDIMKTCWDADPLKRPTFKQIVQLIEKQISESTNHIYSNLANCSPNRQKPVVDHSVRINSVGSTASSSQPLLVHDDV
KIT T670I/V559D, sequence (P10721 26-976 V559D/T670I): as the sequence (P10721 26-976 L576P) above, with V534D, P551L, T645I counted along it
T2 sequence (O14757 whole entry): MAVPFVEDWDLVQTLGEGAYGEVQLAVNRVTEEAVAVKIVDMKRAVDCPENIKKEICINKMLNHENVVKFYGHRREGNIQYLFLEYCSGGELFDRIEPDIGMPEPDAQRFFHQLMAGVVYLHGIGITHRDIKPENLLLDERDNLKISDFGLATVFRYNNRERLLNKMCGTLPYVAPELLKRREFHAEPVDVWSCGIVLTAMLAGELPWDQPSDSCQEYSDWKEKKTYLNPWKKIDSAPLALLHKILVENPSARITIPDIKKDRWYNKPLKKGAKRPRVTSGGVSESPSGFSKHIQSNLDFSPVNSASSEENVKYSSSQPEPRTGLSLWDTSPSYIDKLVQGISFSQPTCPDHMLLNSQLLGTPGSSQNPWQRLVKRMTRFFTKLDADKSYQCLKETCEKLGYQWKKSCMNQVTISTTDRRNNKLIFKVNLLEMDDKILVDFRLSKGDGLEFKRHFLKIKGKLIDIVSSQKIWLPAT
T5 sequence (P00533 25-1210 L858R): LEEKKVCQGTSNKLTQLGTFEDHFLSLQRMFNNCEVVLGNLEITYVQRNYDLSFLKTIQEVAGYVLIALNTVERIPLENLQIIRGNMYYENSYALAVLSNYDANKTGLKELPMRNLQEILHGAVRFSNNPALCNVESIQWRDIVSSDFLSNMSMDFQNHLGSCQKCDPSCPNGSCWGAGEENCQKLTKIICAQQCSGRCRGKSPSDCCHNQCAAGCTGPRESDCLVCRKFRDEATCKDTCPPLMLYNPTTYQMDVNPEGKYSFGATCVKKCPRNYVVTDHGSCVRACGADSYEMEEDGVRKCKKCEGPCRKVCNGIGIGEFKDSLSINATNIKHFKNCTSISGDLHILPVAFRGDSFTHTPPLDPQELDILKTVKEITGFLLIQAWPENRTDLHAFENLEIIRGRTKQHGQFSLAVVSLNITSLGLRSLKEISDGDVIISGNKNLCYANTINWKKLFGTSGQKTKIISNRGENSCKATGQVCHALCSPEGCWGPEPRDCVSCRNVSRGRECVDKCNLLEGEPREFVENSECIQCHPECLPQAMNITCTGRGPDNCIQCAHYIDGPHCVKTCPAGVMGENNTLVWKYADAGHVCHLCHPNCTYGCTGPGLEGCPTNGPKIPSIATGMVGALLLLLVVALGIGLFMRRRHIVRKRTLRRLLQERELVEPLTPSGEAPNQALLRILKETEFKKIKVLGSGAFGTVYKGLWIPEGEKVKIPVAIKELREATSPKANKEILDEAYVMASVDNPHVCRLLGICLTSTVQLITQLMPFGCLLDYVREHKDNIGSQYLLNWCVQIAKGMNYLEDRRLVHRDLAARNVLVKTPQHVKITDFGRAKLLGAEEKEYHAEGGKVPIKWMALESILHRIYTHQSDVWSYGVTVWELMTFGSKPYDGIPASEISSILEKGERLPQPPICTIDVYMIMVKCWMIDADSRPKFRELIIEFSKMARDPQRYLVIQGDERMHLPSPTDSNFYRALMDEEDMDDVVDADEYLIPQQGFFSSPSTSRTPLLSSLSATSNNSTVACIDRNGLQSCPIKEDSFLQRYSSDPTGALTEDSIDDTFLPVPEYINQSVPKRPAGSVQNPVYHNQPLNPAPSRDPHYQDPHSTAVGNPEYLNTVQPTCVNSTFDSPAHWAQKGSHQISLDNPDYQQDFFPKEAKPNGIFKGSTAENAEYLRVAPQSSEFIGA
T1 sequence (Q6P2M8 whole entry): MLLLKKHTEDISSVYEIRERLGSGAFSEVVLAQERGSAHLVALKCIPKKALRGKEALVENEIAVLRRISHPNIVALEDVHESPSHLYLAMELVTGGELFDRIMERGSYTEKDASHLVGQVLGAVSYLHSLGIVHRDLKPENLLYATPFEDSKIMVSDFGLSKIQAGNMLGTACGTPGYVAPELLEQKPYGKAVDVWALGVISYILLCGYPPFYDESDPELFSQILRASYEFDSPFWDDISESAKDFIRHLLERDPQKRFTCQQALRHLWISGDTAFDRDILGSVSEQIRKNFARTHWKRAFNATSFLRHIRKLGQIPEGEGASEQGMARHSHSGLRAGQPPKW
T7 sequence (P29323 19-1055): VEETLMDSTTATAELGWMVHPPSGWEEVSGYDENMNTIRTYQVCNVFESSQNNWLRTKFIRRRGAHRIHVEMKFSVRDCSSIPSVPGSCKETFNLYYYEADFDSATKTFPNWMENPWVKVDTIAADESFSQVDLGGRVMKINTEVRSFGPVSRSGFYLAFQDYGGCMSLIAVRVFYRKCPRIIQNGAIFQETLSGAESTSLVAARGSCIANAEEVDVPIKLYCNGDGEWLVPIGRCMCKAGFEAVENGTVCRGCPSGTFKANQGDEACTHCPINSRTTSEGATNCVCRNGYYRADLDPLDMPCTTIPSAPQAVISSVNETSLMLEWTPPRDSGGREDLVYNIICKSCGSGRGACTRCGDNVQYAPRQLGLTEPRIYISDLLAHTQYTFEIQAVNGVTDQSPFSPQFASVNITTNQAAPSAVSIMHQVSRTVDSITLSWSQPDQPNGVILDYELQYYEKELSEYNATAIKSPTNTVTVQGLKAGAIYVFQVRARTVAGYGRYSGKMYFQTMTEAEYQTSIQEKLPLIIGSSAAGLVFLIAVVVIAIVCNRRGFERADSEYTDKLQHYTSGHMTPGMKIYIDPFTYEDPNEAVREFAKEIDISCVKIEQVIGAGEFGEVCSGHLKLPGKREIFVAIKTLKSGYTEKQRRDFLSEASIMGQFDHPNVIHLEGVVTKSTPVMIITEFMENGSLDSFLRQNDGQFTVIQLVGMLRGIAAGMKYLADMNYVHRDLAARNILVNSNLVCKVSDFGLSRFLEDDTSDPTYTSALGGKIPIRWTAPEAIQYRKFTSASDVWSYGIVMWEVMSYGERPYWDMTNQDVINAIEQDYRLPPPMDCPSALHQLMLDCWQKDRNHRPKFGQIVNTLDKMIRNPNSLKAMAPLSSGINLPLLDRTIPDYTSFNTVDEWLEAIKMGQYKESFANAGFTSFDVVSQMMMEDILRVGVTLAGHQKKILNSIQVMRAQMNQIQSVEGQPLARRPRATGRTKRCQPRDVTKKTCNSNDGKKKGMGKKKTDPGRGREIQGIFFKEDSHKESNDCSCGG
T9 sequence (P45983 whole entry): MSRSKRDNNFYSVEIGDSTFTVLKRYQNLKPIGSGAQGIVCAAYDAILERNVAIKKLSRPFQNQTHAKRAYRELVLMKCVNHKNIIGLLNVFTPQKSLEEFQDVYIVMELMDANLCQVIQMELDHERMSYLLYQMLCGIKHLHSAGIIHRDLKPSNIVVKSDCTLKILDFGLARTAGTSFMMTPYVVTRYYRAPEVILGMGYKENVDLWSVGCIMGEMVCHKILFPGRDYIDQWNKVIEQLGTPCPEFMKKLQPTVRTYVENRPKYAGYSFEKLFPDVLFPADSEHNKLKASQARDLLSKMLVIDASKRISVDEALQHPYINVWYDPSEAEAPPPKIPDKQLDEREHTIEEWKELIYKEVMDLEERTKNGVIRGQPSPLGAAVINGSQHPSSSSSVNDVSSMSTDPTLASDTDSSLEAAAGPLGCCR

Compound: COc1cc(C(=O)NCC(=O)Nc2ccc3c(/C=C/c4ccccn4)n[nH]c3c2)cc(OC)c1OC [CHMFL-KIT-031]
- GI50 [1]: > 10 µM
- GI50 [2]: 1800 nM
- GI50 [3]: > 10 µM
- GI50 [4]: 2200 nM
- GI50 [5]: > 10 µM
- GI50 [6]: > 10 µM
- GI50 [7]: > 10 µM
- GI50 [8]: 810 nM
- GI50 [9]: 25 nM
- GI50 [10]: 400 nM
- GI50 [11]: > 10 µM
- KINOMEScan profiling value [12]: 83
- KINOMEScan profiling value [13]: 97
- KINOMEScan profiling value [14]: 100
- KINOMEScan profiling value [15]: 100
- KINOMEScan profiling value [16]: 100
- KINOMEScan profiling value [17]: 100
- KINOMEScan profiling value [18]: 87
- KINOMEScan profiling value [19]: 73
- KINOMEScan profiling value [20]: 91
- KINOMEScan profiling value [21]: 85
- KINOMEScan profiling value [22]: 94
- KINOMEScan profiling value [23]: 100
- KINOMEScan profiling value [24]: 71
- KINOMEScan profiling value [25]: 97
- EC50 ([26]; EC50 pY703 auto-phosphorylation): > 10 µM
- EC50 ([26]; EC50 pY719 auto-phosphorylation): 5.9 µM
- EC50 ([26]; EC50 pY823 auto-phosphorylation): 1.9 µM
- EC50 [27]: > 10 µM
- EC50 ([27]; read-out: EC50 pY719 auto-phosphorylation, KIT T670I/V559D transformed BaF3 cells, 2h): > 10 µM
- EC50 ([27]; read-out: EC50 pY823 auto-phosphorylation, KIT T670I/V559D transformed BaF3 cells, 2h): > 10 µM
- selectivity over KIT wt (IC50) ([28]; ADP-Glo, KIT V559D vs KIT wt): about 6 fold
- IC50 ([28]; purified kinase protein, ADP-Glo, 100 μM ATP): 28.2 nM and 28 nM
- selectivity over KIT wt ([28]; summary statement): 10 fold
